In patent publication US10004701B2, “Methods and compositions for treating infection” (UNIVERSITY OF ROCHESTER, priority 2012, dated 2018):
Counter-ions that a name gives are not always drawn. Like-named read-outs stand apart in the source and are kept apart here.

What was measured:
Test in all cases: AK assay 384-well format, Prestwick library screening
E. faecium = type: cell-based, Enterococcus faecium; conditions: 50 μM final drug concentration; for fold induction at 50 µM: Enterococcus faecium, 3 h
[1] = tested on: S. aureus strain USA300-0114; type: cell-based, Staphylococcus aureus; conditions: 50 μM final drug concentration; for fold induction at 50 µM: Staphylococcus aureus, USA300, 3 h
K. pneumoniae = type: cell-based, Klebsiella pneumoniae; conditions: 50 μM final drug concentration; for fold induction at 50 µM: Klebsiella pneumoniae, 3 h
[2] = tested on: A. baumannii strain 98-37-09; type: cell-based, Acinetobacter baumannii; conditions: 50 μM final drug concentration; for fold induction at 50 µM: Acinetobacter baumannii, 983709, 3 h
P. aeruginosa = type: cell-based, Pseudomonas aeruginosa; conditions: 50 μM final drug concentration; for fold induction at 50 µM: Pseudomonas aeruginosa, 3 h
E. cloacae = type: cell-based, Enterobacter cloacae; conditions: 50 μM final drug concentration; for fold induction at 50 µM: Enterobacter cloacae, 3 h
E. coli = type: cell-based, Escherichia coli; conditions: 50 μM final drug concentration; for fold induction at 50 µM: Escherichia coli, 3 h
[3] = 384-well format, cutoff for positive-scoring molecules 3-fold increase, read-out: AK-based Prestwick Library Screening Results, E. faecium (increase in extracellular AK activity)
[4] = 384-well format, cutoff for positive-scoring molecules 3-fold increase, read-out: AK-based Prestwick Library Screening Results, S. aureus (increase in extracellular AK activity)
[5] = 384-well format, cutoff for positive-scoring molecules 3-fold increase, read-out: AK-based Prestwick Library Screening Results, K. pneumoniae (increase in extracellular AK activity)
[6] = 384-well format, cutoff for positive-scoring molecules 3-fold increase, read-out: AK-based Prestwick Library Screening Results, A. baumannii (increase in extracellular AK activity)
[7] = 384-well format, cutoff for positive-scoring molecules 3-fold increase, read-out: AK-based Prestwick Library Screening Results, P. aeruginosa (increase in extracellular AK activity)
[8] = 384-well format, cutoff for positive-scoring molecules 3-fold increase, read-out: AK-based Prestwick Library Screening Results, E. cloacae (increase in extracellular AK activity)
[9] = 384-well format, cutoff for positive-scoring molecules 3-fold increase, read-out: AK-based Prestwick Library Screening Results, E. coli (increase in extracellular AK activity)
[10] = cutoff for positive-scoring molecules 3-fold increase

Compound `Nc1nc(N)c2nc(-c3ccccc3)c(N)nc2n1` [Triamterene] has a fold induction at 50 µM (E. faecium; [3]) of 0.7, a fold induction at 50 µM [1, 4] of 0.6 and a fold induction at 50 µM (K. pneumoniae; [5]) of 0.5. It also gave a fold induction at 50 µM [2, 6] of 1.1, a fold induction at 50 µM (P. aeruginosa; [7]) of 0.6 and a fold induction at 50 µM (E. cloacae; [8]) of 1.2. The fold induction at 50 µM (E. coli; [9]) was 0.6.

Work on `N=C(N)N/N=C/c1c(Cl)cccc1Cl` [Guanabenz acetate] yielded a fold induction at 50 µM (E. faecium; [3]) of 1, a fold induction at 50 µM [1, 4] of 0.5 and a fold induction at 50 µM (K. pneumoniae; [5]) of 0.4. The fold induction at 50 µM [2, 6] was 0.8, the fold induction at 50 µM (P. aeruginosa; [7]) was 0.6 and the fold induction at 50 µM (E. cloacae; [8]) was 0.7. The fold induction at 50 µM (E. coli; [9]) was 0.7.

In the case of `NC(=O)OCC(O)COc1ccc(Cl)cc1` (stereo not shown) [Chlorphensin carbamate], the “AK-based Prestwick Library Screening Results: E. faecium (increase in extracellular AK activity)” value (E. faecium; planktonic E. faecium, 384-well, cutoff for positive-scoring molecules 3-fold increase) is reported as 0.9, the “AK-based Prestwick Library Screening Results: S. aureus (increase in extracellular AK activity)” value ([1]; planktonic S. aureus, 384-well, cutoff for positive-scoring molecules 3-fold increase) is reported as 1.0 and the “AK-based Prestwick Library Screening Results: K. pneumoniae (increase in extracellular AK activity)” value (K. pneumoniae; planktonic K. pneumoniae, 384-well, cutoff for positive-scoring molecules 3-fold increase) is reported as 1.1. For the same compound, the “AK-based Prestwick Library Screening Results: A. baumannii (increase in extracellular AK activity)” value ([2]; planktonic A. baumannii, 384-well, cutoff for positive-scoring molecules 3-fold increase) was 1.3, the “AK-based Prestwick Library Screening Results: P. aeruginosa (increase in extracellular AK activity)” value (P. aeruginosa; planktonic P. aeruginosa, 384-well, cutoff for positive-scoring molecules 3-fold increase) was 1.1 and the “AK-based Prestwick Library Screening Results: E. cloacae (increase in extracellular AK activity)” value (E. cloacae; planktonic E. cloacae, 384-well, cutoff for positive-scoring molecules 3-fold increase) was 1.4. For the same compound, the “AK-based Prestwick Library Screening Results: E. coli (increase in extracellular AK activity)” value (E. coli; planktonic E. coli, 384-well, cutoff for positive-scoring molecules 3-fold increase) was 1.2.

For `NS(=O)(=O)c1cc2c(cc1Cl)NC(CC1CCCC1)NS2(=O)=O` (stereo not shown) [Cyclopenthiazide], the fold induction at 50 µM (E. faecium; planktonic E. faecium, positive cutoff 3-fold increase, read-out: AK-based Prestwick library screening result, E. faecium (fold increase in extracellular AK activity)) was 0.9, the fold induction at 50 µM ([1]; planktonic S. aureus, positive cutoff 3-fold increase, read-out: AK-based Prestwick library screening result, S. aureus (fold increase in extracellular AK activity)) was 0.7 and the fold induction at 50 µM (K. pneumoniae; planktonic K. pneumoniae, positive cutoff 3-fold increase, read-out: AK-based Prestwick library screening result, K. pneumoniae (fold increase in extracellular AK activity)) was 0.8. For the same compound, the fold induction at 50 µM ([2]; planktonic A. baumannii, positive cutoff 3-fold increase, read-out: AK-based Prestwick library screening result, A. baumannii (fold increase in extracellular AK activity)) was 0.8, the fold induction at 50 µM (P. aeruginosa; planktonic P. aeruginosa, positive cutoff 3-fold increase, read-out: AK-based Prestwick library screening result, P. aeruginosa (fold increase in extracellular AK activity)) was 0.8 and the fold induction at 50 µM (E. cloacae; planktonic E. cloacae, positive cutoff 3-fold increase, read-out: AK-based Prestwick library screening result, E. cloacae (fold increase in extracellular AK activity)) was 1.2. For the same compound, the fold induction at 50 µM (E. coli; planktonic E. coli, positive cutoff 3-fold increase, read-out: AK-based Prestwick library screening result, E. coli (fold increase in extracellular AK activity)) was 0.8.

In the case of Trimeprazine tartrate, the “AK-based Prestwick Library Screening Results, E. faecium (fold increase in extracellular AK activity)” value (E. faecium; [10]) is reported as 1.0, the “AK-based Prestwick Library Screening Results, S. aureus (fold increase in extracellular AK activity)” value [1, 10] is reported as 1.1 and the “AK-based Prestwick Library Screening Results, K. pneumoniae (fold increase in extracellular AK activity)” value (K. pneumoniae; [10]) is reported as 0.9. The “AK-based Prestwick Library Screening Results, A. baumannii (fold increase in extracellular AK activity)” value [2, 10] was 1.1, the “AK-based Prestwick Library Screening Results, P. aeruginosa (fold increase in extracellular AK activity)” value (P. aeruginosa; [10]) was 1.2 and the “AK-based Prestwick Library Screening Results, E. cloacae (fold increase in extracellular AK activity)” value (E. cloacae; [10]) was 1.5. For the same compound, the “AK-based Prestwick Library Screening Results, E. coli (fold increase in extracellular AK activity)” value (E. coli; [10]) was 1.2.

In the case of `CC(C)(C)NC[C@H](O)COc1cccc2c1CCCC2=O.Cl` [(−)-Levobunolol hydrochloride], the “AK-based Prestwick Library Screening Results, E. faecium (fold increase in extracellular AK activity)” value (E. faecium; [10]) is reported as 1.0, the “AK-based Prestwick Library Screening Results, S. aureus (fold increase in extracellular AK activity)” value [1, 10] is reported as 1.0 and the “AK-based Prestwick Library Screening Results, K. pneumoniae (fold increase in extracellular AK activity)” value (K. pneumoniae; [10]) is reported as 1.0. The “AK-based Prestwick Library Screening Results, A. baumannii (fold increase in extracellular AK activity)” value [2, 10] was 1.0, the “AK-based Prestwick Library Screening Results, P. aeruginosa (fold increase in extracellular AK activity)” value (P. aeruginosa; [10]) was 1.2 and the “AK-based Prestwick Library Screening Results, E. cloacae (fold increase in extracellular AK activity)” value (E. cloacae; [10]) was 1.9. For the same compound, the “AK-based Prestwick Library Screening Results, E. coli (fold increase in extracellular AK activity)” value (E. coli; [10]) was 1.3.

`C=CCc1ccccc1OCC(O)CNC(C)C` (stereo not shown) [Alprenolol hydrochloride] gave a fold induction at 50 µM (E. faecium; [3]) of 0.9, a fold induction at 50 µM [1, 4] of 0.6 and a fold induction at 50 µM (K. pneumoniae; [5]) of 0.5. For the same compound, the fold induction at 50 µM [2, 6] was 0.7, the fold induction at 50 µM (P. aeruginosa; [7]) was 0.5 and the fold induction at 50 µM (E. cloacae; [8]) was 0.4. The fold induction at 50 µM (E. coli; [9]) was 0.6.
